Measured values: patent US12311019B2, “Vaccine composition and uses thereof” (Imugene Limited, priority 2018, dated 2025)
Entries after “also recorded” stand apart in the source; their conditions may differ.

How the values were obtained:
[1] = system: PD1 protein from other species—mouse, rat, Rhesus monkey, Cynomolgus monkey and canine; test: Cross-reactivity ELISAs, summary over species; type: binding; settings: for cross-reactivity of affinity-purified anti-PD1 antibodies from animals immunised with the peptide with PD1 protein from other species: mouse, rat, Rhesus monkey, Cynomolgus monkey and canine
Protocol: To assess whether or not the anti-human PD1 antibodies raised in the immunised rabbits would cross-react with PD1 of other species, the anti-PD1 antisera from the Examples 7 and 8, above, were screened in an ELISA assay for binding to mouse, rhesus monkey, canine and rat PD1 proteins.
A further ELISA assay was performed to make a direct comparison of the cross-reactivity of anti-human PD1 antibodies raised in the immunised rabbits (Rabbits 1 and 2) to PD1 proteins of different species.

[2] = molecular target: PD1 (SEQ ID NO:1) conjugated to a His tag (Homo sapiens, UniProt Q15116); test: ELISA of anti-PD1 antibody titre in immunised rabbits on PD1 coated plates; type: binding; settings: for anti-PD1 antibody response / titre raised in immunised rabbits (in words): rabbits immunised with KLH-conjugated peptide in Freund's adjuvant
Chain of PD1 (SEQ ID NO:1) conjugated to a His tag (Q15116 25-170): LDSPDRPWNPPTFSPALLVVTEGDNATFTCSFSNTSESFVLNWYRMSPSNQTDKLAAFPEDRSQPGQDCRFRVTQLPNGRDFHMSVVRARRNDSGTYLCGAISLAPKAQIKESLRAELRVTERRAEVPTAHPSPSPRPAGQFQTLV
Protocol: Approximately 250-500 μg of each KLH-conjugated peptide fragment was diluted with saline and subsequently emulsified in complete or incomplete Freund's adjuvant at a mass ratio of 1:1. The emulsified solution was administered to rabbits by subcutaneous injection around the shoulders and intramuscular injection into the legs in accordance with the following immunization protocol: • i. Day 00—Serum collected 2 ml (for 0.5-1.0 ml pre-immune serum; • ii. Day 01—1st-immunization, complete Freund's adjuvant, 500 μg peptide fragment; • iii. Day 15—2nd-immunization, complete Freund's adjuvant, 500 μg peptide fragment; • iv. Day 29—3rd-immunization, incomplete Freund's adjuvant, 250 μg peptide fragment; • v. Day 35—Serum collected, 2-3 ml for assessment of anti-PD1 antibody titre by ELISA; • vi. Day 36—4th-immunization, incomplete Freund's adjuvant, 250 μg peptide fragment (optional); • vii. Day 43—5th-immunization, incomplete Freund's adjuvant. 250 μg peptide fragment (optional); • viii. Day 50—6th-immunization, incomplete Freund's adjuvant 250 μg peptide fragment (optional); • ix. Day 57—7th-immunization, incomplete Freund's adjuvant 250 μg peptide fragment (optional); • x. Day 63—Blood sample is collected from the immunised rabbits. B. Assessment of Anti-PDJ Antibody Titre in Immunised Rabbits by ELISA
An enzyme-linked immunosorbent assays (ELISA) was used to measure the anti-PD1 antibody titre in the blood samples collected from the immunized rabbits. Briefly, microtiter plates were coated with PD1 (SEQ ID NO:1) conjugated to a His tag. After blocking the wells of the microtiter plates with BSA to minimise non-specific binding, diluted sera from the immunized rabbits were added to the plates and incubated on a shaker for around 1 hr at 20° C. (or alternatively overnight at 4° C.). The plates were then washed four times with PBS/0.1% v/v Tween 20 and excess wash buffer was removed from each well.
Approximately 100 μL of a horseradish peroxidase-labeled anti-rabbit antibody was then added to each well and incubated for around 1 hr at 20° C. The plates were then washed four times with PBS/0.1% v/v Tween 20 and excess wash buffer was removed from each well. The plates were then washed twice with PBS only, to remove traces of Tween remaining from the washing buffer.
To detect the presence of horseradish peroxidase-labeled, anti-rabbit antibody, 100 μL of 1-Step™ ABTS (Pierce Cat. No. 37615) was added to each well and incubated for up to 45 min at 20° C. The absorbance of any colour change in each well was read using a microtitre Titertek Multiskan MC plate reader in the dual wavelength mode at 405 nm against a reference wavelength of 492 nm and compared to appropriate negative controls, such as the colour change observed in a well to which no PD1 was added, to which no immunised rabbit sera was added and/or to which no horseradish peroxidase-labeled, anti-rabbit antibody was added.
Approximately 250-500 μg of each KLH-conjugated fusion peptides were diluted with saline and subsequently emulsified in complete or incomplete Freund's adjuvant at a mass ratio of 1:1. The emulsified solutions were administered to rabbits by subcutaneous injection around the shoulders and intramuscular injection into the legs in accordance with the immunization protocol of Example 2, above.
An enzyme-linked immunosorbent assays (ELISA) was used to measure the anti-PD1 antibody titre in the blood samples collected from the immunized rabbits, in accordance with the methodology set out in Example 2 above. The absorbance readings from the ELISA assay are shown in Table 8, below (SEQ TD NO:9 is underlined): […]

| Sequence | species of greatest cross-reactivity of the anti-PD1 antibodies raised with the peptide [1] | cross-reactivity of affinity-purified anti-PD1 antibodies from animals immunised with the peptide with PD1 protein from other species [1] | anti-PD1 antibody response / titre raised in immunised rabbits (in words) [2] | anti-PD1 antibody titre compared to the other peptide sequences ([2]; immunised rabbits) |
| --- | --- | --- | --- | --- |
| FPEDRSQPGQDC (listed as Homo sapiens) [SEQ ID NO:29] | greatest cross-reactivity to PD1 protein from Rhesus and Cynomolgus monkeys | at least some cross-reactivity | raising an anti-PD1 antibody response; also recorded: sufficient anti-PD1 antibody titres |  |
| FSPALLVVTEGD (listed as Homo sapiens) [SEQ ID NO:14] | greatest cross-reactivity to PD1 protein from Rhesus and Cynomolgus monkeys | at least some cross-reactivity | raising an anti-PD1 antibody response; also recorded: sufficient anti-PD1 antibody titres |  |
| GAISLAPKAQIK (listed as Homo sapiens) [SEQ ID NO:43] | greatest cross-reactivity to PD1 protein from Rhesus and Cynomolgus monkeys | at least some cross-reactivity | raising an anti-PD1 antibody response; also recorded: sufficient anti-PD1 antibody titres |  |
| GAISLAPKAQIKGWFLDSPDRPWN (listed as Homo sapiens) [SEQ ID NO:57] | greatest cross-reactivity to PD1 protein from Rhesus and Cynomolgus monkeys | at least some cross-reactivity | Anti-PD1 antibodies were also raised |  |
| GWFLDSPDRPWN (listed as Homo sapiens) [SEQ ID NO:9] | greatest cross-reactivity to PD1 protein from Rhesus and Cynomolgus monkeys | at least some cross-reactivity | raising an anti-PD1 antibody response; also recorded: sufficient anti-PD1 antibody titres | highest anti-PD1 antibody titre; also recorded: higher anti-PD1 antibody titre |
| GWFLDSPDRPWNGAISLAPKAQIK (listed as Homo sapiens) [SEQ ID NO:56] | greatest cross-reactivity to PD1 protein from Rhesus and Cynomolgus monkeys | at least some cross-reactivity | Anti-PD1 antibodies were also raised |  |
| LAAFPEDRSQPG (listed as Homo sapiens) [SEQ ID NO:28] | greatest cross-reactivity to PD1 protein from Rhesus and Cynomolgus monkeys | at least some cross-reactivity | raising an anti-PD1 antibody response; also recorded: sufficient anti-PD1 antibody titres |  |
| LDSPDRPWNPPT (listed as Homo sapiens) [SEQ ID NO:10] | greatest cross-reactivity to PD1 protein from Rhesus and Cynomolgus monkeys | at least some cross-reactivity | raising an anti-PD1 antibody response; also recorded: sufficient anti-PD1 antibody titres |  |
| LRVTERRAEVPT (listed as Homo sapiens) [SEQ ID NO:49] | greatest cross-reactivity to PD1 protein from Rhesus and Cynomolgus monkeys | at least some cross-reactivity | raising an anti-PD1 antibody response; also recorded: sufficient anti-PD1 antibody titres |  |
| NWYRMSPSNQTD (listed as Homo sapiens) [SEQ ID NO:59] | greatest cross-reactivity to PD1 protein from Rhesus and Cynomolgus monkeys | at least some cross-reactivity | raising an anti-PD1 antibody response; also recorded: sufficient anti-PD1 antibody titres |  |
| YLSGAISLAPKA (listed as Homo sapiens) [SEQ ID NO:61] | greatest cross-reactivity to PD1 protein from Rhesus and Cynomolgus monkeys | at least some cross-reactivity | raising an anti-PD1 antibody response; also recorded: sufficient anti-PD1 antibody titres |  |
